Patent US7863449B2, “Modulators of muscarinic receptors” (Vertex Pharmaceuticals Incorporated, priority 2004, dated 2011)

How the values were obtained:
M4 muscarinic receptor = target: T1, M4 muscarinic receptor (Homo sapiens, UniProt P08173); assay: Functional mobilization of intracellular calcium (FLIPR), M4-CHO cells; format: cell-based; conditions: for Emax: 100% efficacy is the maximum response obtained using Carbachol as a control; for M4 Activity: M4-CHO cells, FLIPR calcium mobilization
T1 construct: expressed in transfected cells; host or cells: CHO (M4-CHO)
T1 sequence (P08173 1-479): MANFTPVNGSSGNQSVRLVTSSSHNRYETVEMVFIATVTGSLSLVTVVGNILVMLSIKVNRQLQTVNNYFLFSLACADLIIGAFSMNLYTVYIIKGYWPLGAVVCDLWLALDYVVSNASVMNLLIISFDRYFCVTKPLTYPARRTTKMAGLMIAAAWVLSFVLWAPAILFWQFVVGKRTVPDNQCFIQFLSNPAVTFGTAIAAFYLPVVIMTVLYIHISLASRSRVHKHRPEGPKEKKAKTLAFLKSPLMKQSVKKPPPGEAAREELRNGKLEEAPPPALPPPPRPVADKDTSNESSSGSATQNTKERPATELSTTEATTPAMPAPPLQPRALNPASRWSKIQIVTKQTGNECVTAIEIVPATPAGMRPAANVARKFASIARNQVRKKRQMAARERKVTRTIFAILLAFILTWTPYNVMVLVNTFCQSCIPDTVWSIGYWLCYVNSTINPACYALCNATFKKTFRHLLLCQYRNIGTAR
Summary of the method: (§1)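 CHO cells expressing M1 or M4, loaded with Fluo-3 AM or Calcium 3 dye with 1 mM probenecid, 0.5% DMSO final. Agonist mode: compound added directly; antagonist mode: 15 min pre-incubation (or co-application) before carbachol at EC80. Fluorescence recorded 60 s on FLIPR.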

M1 muscarinic receptor = target: T2, M1 muscarinic receptor (Homo sapiens, UniProt P11229); assay: Functional mobilization of intracellular calcium (FLIPR), M1-CHO cells; format: cell-based; conditions: for Emax: 100% efficacy is the maximum response obtained using Carbachol as a control; for M1 Activity: M1-CHO cells, FLIPR calcium mobilization
T2 construct: expressed in transfected cells; host or cells: CHO (M1-CHO)
T2 sequence (P11229 1-460): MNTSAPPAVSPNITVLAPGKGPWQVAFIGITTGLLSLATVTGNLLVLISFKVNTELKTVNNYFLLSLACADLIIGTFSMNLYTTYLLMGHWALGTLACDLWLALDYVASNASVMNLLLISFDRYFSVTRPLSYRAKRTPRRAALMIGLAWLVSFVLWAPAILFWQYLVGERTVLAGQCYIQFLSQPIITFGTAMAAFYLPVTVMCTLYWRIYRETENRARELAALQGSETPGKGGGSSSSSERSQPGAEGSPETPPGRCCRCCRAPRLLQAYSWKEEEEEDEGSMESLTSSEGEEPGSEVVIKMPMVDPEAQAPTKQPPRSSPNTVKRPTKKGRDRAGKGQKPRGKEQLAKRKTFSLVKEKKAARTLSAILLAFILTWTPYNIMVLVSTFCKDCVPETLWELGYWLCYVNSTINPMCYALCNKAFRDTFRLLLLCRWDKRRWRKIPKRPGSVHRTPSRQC
Summary of the method: as §1

Row | SMILES | Emax (M4 muscarinic receptor) | M4 Activity (M4 muscarinic receptor) | Emax (M1 muscarinic receptor) | M1 Activity (M1 muscarinic receptor)
1 | C#CCOC(=O)N1C2CCC1CC(N1CCC3(CC1)CN(C(C)=O)Cc1ccccc13)C2 (stereo not drawn) [compound 156] | 25 to 100% | +++ (activity was measured to be less than 1.0 μM) | 25 to 100% | +++ (activity was measured to be less than 1.0 μM)
2 | COCCOC(=O)N1Cc2ccccc2C2(CCN(C3CC4CCC(C3)N4C(=O)OC(C)C)CC2)C1 (stereo not drawn) [compound 157] | 25 to 100% | +++ (activity was measured to be less than 1.0 μM) | 25 to 100% | +++ (activity was measured to be less than 1.0 μM)
3 | COCCOC(=O)N1CCC(N2CCC3(CC2)CN(C(C)=O)Cc2ccccc23)CC1 [compound 158] | 25 to 100% | +++ (activity was measured to be less than 1.0 μM) | 25 to 100% | +++ (activity was measured to be less than 1.0 μM)
4 | CCOC(=O)N1C2CCC1CC(N1CCC3(CC1)CN(c1cccc(F)c1)Cc1ccccc13)C2 (stereo not drawn) [compound 159] | 25 to 100% | +++ (activity was measured to be less than 1.0 μM) | > 100% | +++ (activity was measured to be less than 1.0 μM)
5 | CC(=O)N1Cc2ccccc2C2(CCN(CC3CCN(C(=O)OC(C)C)CC3)CC2)C1 [compound 161] | < 25% | +++ (activity was measured to be less than 1.0 μM) | 25 to 100% | ++ (activity was measured to be from 1.0 μM to 5.0 μM)
6 | CCOC(=O)N1C2CCC1CC(N1CCC3(CC1)CN(C(=O)CC(C)(C)C)Cc1ccccc13)C2 (stereo not drawn) [compound 162] | 25 to 100% | +++ (activity was measured to be less than 1.0 μM) | 25 to 100% | +++ (activity was measured to be less than 1.0 μM)
7 | CCOC(=O)N1CCC(N2CCC3(CC2)CN(C(=O)NC2CCCCC2)Cc2ccccc23)CC1 [compound 163] | 25 to 100% | +++ (activity was measured to be less than 1.0 μM) | 25 to 100% | +++ (activity was measured to be less than 1.0 μM)
8 | CCOC(=O)N1CCC(N2CCC3(CC2)CN(C(=O)OC2CCCC2)Cc2ccccc23)CC1 [compound 164] | 25 to 100% | +++ (activity was measured to be less than 1.0 μM) | 25 to 100% | +++ (activity was measured to be less than 1.0 μM)
9 | CCOC(=O)N1CCC(N2CCC3(CC2)CN(C(=O)OC(C)C)Cc2ccccc23)CC1 [compound 166] | 25 to 100% | +++ (activity was measured to be less than 1.0 μM) | 25 to 100% | +++ (activity was measured to be less than 1.0 μM)
10 | CCOC(=O)N1CCC(N2CCC3(CC2)CN(Cc2ccccc2)Cc2ccccc23)CC1 [compound 167] | < 25% | +++ (activity was measured to be less than 1.0 μM) | 25 to 100% | ++ (activity was measured to be from 1.0 μM to 5.0 μM)
11 | CCNC(=O)N1Cc2ccccc2C2(CCN(C3CCN(C(=O)OCC)CC3)CC2)C1 [compound 168] | 25 to 100% | +++ (activity was measured to be less than 1.0 μM) | 25 to 100% | +++ (activity was measured to be less than 1.0 μM)
12 | CC(=O)N1Cc2ccccc2C2(CCN(C3C4CC5CC(C4)CC3C5)CC2)C1 (stereo not drawn) [compound 170] | 25 to 100% | +++ (activity was measured to be less than 1.0 μM) | 25 to 100% | +++ (activity was measured to be less than 1.0 μM)
13 | CCOC(=O)N1CCC(CN2CCC3(CC2)CN(C(=O)Nc2c(C)noc2C)Cc2ccccc23)CC1 [compound 171] | 25 to 100% | +++ (activity was measured to be less than 1.0 μM) | 25 to 100% | +++ (activity was measured to be less than 1.0 μM)
14 | CCOC(=O)N1CCC(N2CCC3(CC2)CN(C2CCCCCC2)Cc2ccccc23)CC1 [compound 172, Ethyl 4-(2-cycloheptyl-2,3-dihydro-1H-spiro[isoquinoline-4,4-piperidine]-1′-yl)piperidine-1-carboxylate] | 25 to 100% |  | 25 to 100% | 
